The results in this text go back to patent publication US20250313552A1, “NICOTINATE ESTERS AND THERAPEUTIC METHODS OF USE THEREOF” (New Frontier Bio, Inc., priority 2024, published 2025).

This assay deals with Keratinocytes. Description: NAD assay in keratinocytes (NAD+ increase). The class given is cell-based. Particulars: 3 hours incubation with compound, normalized NAD, ratio vs PBS control. How it is done: Keratinocytes were plated in 12-well tissue culture plates at a density of 200,000 cells per well. The wells contained 0.75 mL DMEM growth medium with 2% HI FBS and cells were incubated overnight at 37° C. at 5% CO2. The following day, cells were dosed with the desired concentration of each compound and incubated for 3 hours. Following the incubation period, cell monolayers were washed with 200 μL of PBS. Cells were then allowed to lift using 0.25% trypsin for 15 minutes. After lifting, cells were collected into a sterile 1.5 mL centrifuge tube containing 400 μL of DMEM with 2% HI FBS. The cell lysates then centrifuged at 500×g for 5 minutes. Following this, the supernatant was aspirated off of the cell pellet and cells were washed again in 200 μL of PBS and centrifuged at 500×g for 5 minutes. PBS was aspirated off of the cell pellet and 400 μL of cold extraction buffer was added. Each centrifuge tube was then vortexed for 10 seconds. The resulting samples were centrifuged at 13,000×g for 10 minutes at 4° C. to remove insoluble material. After centrifuging, 50 μL of each sample was used to determine in duplicates the total protein concentration by a BCA protein assay kit. The remaining samples were then deproteinized by centrifuging and filtering them through a 10 kDa cut-off spin filter at 13,000xg for 10 minutes at 4° C. Following deproteinization, the samples were loaded into a 96 well plate in duplicates. The amount loaded was dependent on their protein concentration to ensure a uniform protein content for each sample. The final volume in the well was brought up to 50 μL using the cell extraction buffer. 50 μL of each standard was added to the appropriate wells. 98 μL of cycling buffer and 2 μL of NAD cycling enzyme were added to each well and the wells were incubated at room temperature for 5 minutes. 10 μL of developer was added to each well and the plate was incubated at room temperature for one hour. The reaction was stopped by adding 10 μL of stop solution to each well. The absorbance of each well was measured at 450 nm using a plate reader. A standard curve was plotted and normalized NAD values were determined.
Consider `O=C(OCc1cc(=O)c(OC(=O)c2cccnc2)co1)c1cccnc1` [Compound 5, (5-(nicotinoyloxy)-4-oxo-4H-pyran-2-yl)methyl nicotinate], for which the “NAD+ increase ratio compared to PBS control” value stood at 1.51.
The same measure for `NC(=O)c1ccc[n+]([C@@H]2O[C@H](COC(=O)CCCCC3CCSS3)[C@@H](OC(=O)CCCCC3CCSS3)[C@H]2OC(=O)CCCCC2CCSS2)c1` (stereo partly drawn) [Compound 12, 1-((2R,3R,4R,5R)-3,4-bis((5-(1,2-dithiolan-3-yl)pentanoyl)oxy)-5-(((5-(1,2-dithiolan-3-yl)pentanoyl)oxy)methyl)tetrahydrofuran-2-yl)-3-carbamoylpyridin-1-ium]: 1.16; for `CCCCCCCCCCCCCCCC(=O)OC[C@H](O)[C@H]1OC(=O)C(OC(=O)c2cccnc2)=C1OC(=O)c1cccnc1` [Compound 14, (R)-2-((S)-1-hydroxy-2-(palmitoyloxy)ethyl)-5-oxo-2,5-dihydrofuran-3,4-diyl dinicotinate]: 8.33; for `O=C(/C=C/C=C/c1ccc2c(c1)OCO2)NCCOC(=O)c1cccnc1` [Compound 10, 2-((2E,4E)-5-(benzo[d][1,3]dioxol-5-yl)penta-2,4-dienamido)ethyl nicotinate]: 1.57.
The same measure for `CCCCCCCCCCCCCCCC(=O)OC[C@@H](O)[C@H]1OC(=O)C(OC(=O)c2cccnc2)=C1OC(=O)c1cccnc1` [Compound 15, (R)-2-((R)-1-hydroxy-2-(palmitoyloxy)ethyl)-5-oxo-2,5-dihydrofuran-3,4-diyl dinicotinate]: 1.84; for `CCCCCCCCCCCCCCCC(=O)OC[C@@H](O)[C@@H]1OC(=O)C(O)=C1OC(=O)c1cccnc1` [Compound 3, (S)-4-hydroxy-2-((R)-1-hydroxy-2-(palmitoyloxy)ethyl)-5-oxo-2,5-dihydrofuran-3-yl nicotinate]: 2.77; for `CCCCCCCCCCCCCCCC(=O)OC[C@@H](O)[C@@H]1OC(=O)C(OC(=O)c2cccnc2)=C1O` [Compound 2, (S)-4-hydroxy-5-((R)-1-hydroxy-2-(palmitoyloxy)ethyl)-2-oxo-2,5-dihydrofuran-3-yl nicotinate]: 2.53.
The same measure for `CCCCCCCCCCCCCCCC(=O)OC[C@H](OC(=O)c1cccnc1)[C@H]1OC(=O)C(OC(=O)c2cccnc2)=C1OC(=O)c1cccnc1` [Compound 4, (R)-2-((S)-1-(nicotinoyloxy)-2-(palmitoyloxy)ethyl)-5-oxo-2,5-dihydrofuran-3,4-diyl dinicotinate]: 3.04; for `CC(C)(COC(=O)c1cccnc1)C(OC(=O)c1cccnc1)C(=O)NCCCOC(=O)c1cccnc1` (stereo not drawn) [Compound 11, 2,2-dimethyl-4-((3-(nicotinoyloxy)propyl)amino)-4-oxobutane-1,3-diyl dinicotinate]: 2.7; for `O=C1O[C@H]([C@@H](O)COC(=O)c2cccnc2)C(O)=C1O[C@H]1O[C@H](CO)[C@@H](O)[C@H](O)[C@H]1O` [Compound 8, (S)-2-hydroxy-2-((R)-3-hydroxy-5-oxo-4-(((2R,3R,4S,5S,6R)-3,4,5-trihydroxy-6-(hydroxymethyl)tetrahydro-2H-pyran-2-yl)oxy)-2,5-dihydrofuran-2-yl)ethyl nicotinate]: 1.5.
As to `NC(=O)c1ccc[n+]([C@@H]2O[C@H](COC(=O)c3cccnc3)[C@@H](OC(=O)c3cccnc3)[C@H]2OC(=O)c2cccnc2)c1` [Compound 13, 1-((2R,3R,4R,5R)-3,4-bis(nicotinoyloxy)-5 ((nicotinoyloxy)methyl)tetrahydrofuran-2-yl)-3-carbamoylpyridin-1-ium], the “NAD+ increase ratio compared to PBS control” value turned out to be 1.67.
The same measure for `CCCCCCCCCCCCCCCC(=O)OC[C@@H](O)[C@@H]1OC(=O)C(OC(=O)c2cccnc2)=C1OC(=O)c1cccnc1` [Compound 1, (S)-2-((R)-1-hydroxy-2-(palmitoyloxy)ethyl)-5-oxo-2,5-dihydrofuran-3,4-diyl dinicotinate]: 8.19; for `O=C1O[C@H]([C@@H](O)COC(=O)c2cccnc2)C(O)=C1O[C@H]1O[C@H](COC(=O)c2cccnc2)[C@@H](O)[C@H](O)[C@H]1O` [Compound 7, (S)-2-hydroxy-2-((R)-3-hydroxy-5-oxo-4-(((2R,3R,4S,5S,6R)-3,4,5-trihydroxy-6-((nicotinoyloxy)methyl)tetrahydro-2H-pyran-2-yl)oxy)-2,5-dihydrofuran-2-yl)ethyl nicotinate]: 1.5.
The same measure for `O=C1O[C@H]([C@@H](O)COC(=O)c2cccnc2)C(O)=C1O` [Compound 6, (S)-2-((R)-3,4-dihydroxy-5-oxo-2,5-dihydrofuran-2-yl)-2-hydroxyethyl nicotinate]: 0.99.
The same measure for `O=C(CCC[P+](c1ccccc1)(c1ccccc1)c1ccccc1)NCCOC(=O)c1cccnc1` [Compound 9, (4-((2-(nicotinoyloxy)ethyl)amino)-4-oxobutyl)triphenylphosphonium]: 1.67.
